We go through 10 compounds from patent US10294259B2, “Phenyl c-glucoside derivative containing deoxyglucose structure, preparation method and use thereof” (Tianjin Institute of Pharmaceutical Research, priority 2012, dated 2019).

The target in one series is hSGLT2 (Homo sapiens (Human), UniProt P31639). Briefly: IC50 of inhibition on SGLT2 (method of Meng et al., J. Med. Chem. 2008). The series is classed as cell-based.
Series [1] has as its system SD rats (type 2 diabetes model). Briefly: Urine glucose excretion in streptozotocin/high-fat high-sucrose diet type 2 diabetes model rats, glucose-oxidase method. To be noted: for urine glucose excretion effect (comparison in words): compared with analogues or non-deoxy compounds; for Urine glucose excretion: 6 mg/kg intragastric, glucose 2 g/kg at 0.5 h, urine collected 0-12 h. Type of series: in vivo, rat. The procedure:
The health SD rats are injected intraperitoneally with multiple low doses of streptozotocin for modeling (type 2 diabetes model) after feeding with high-fat and high-sucrose diet, and the content of blood glucose is measured before and after modeling. After the modeling successful, the rats for modeling are randomly divided (8 rats/group) into one blank group (administering the same volume of 0.5% CMC sodium solution) and several groups for compounds to be tested (6 mg/kg) according to the content of 24-hour urine glucose and the body weight. Rats in each group are fasted for 16 hours before experiment. The experimental rats are administered intragastrically with glucose (2 g/kg) at 0.5 h after intragastrical administration with compounds to be tested. The urine is collected at the time-period of 0-12 h after administration, and the urine glucose values are measured at each time-period by glucose-oxidase method. […]

Series [2] in a line: Influencing factors test: higher humidity stability. The series is classed as physicochemical. To be noted: listed as I-D1-6 raw materials. The text has this: (§1) The appearance, number of impurity and the amount of impurity (measured by HPLC) are compared with that of day 0.
The nature of series [3]: Influencing factors test: higher temperature stability. The series is classed as physicochemical. To be noted: listed as I-D1-6 raw materials.
From the text: as §1

The target of the next series is hSGLT1 (Homo sapiens (Human), UniProt P13866). Put plainly: IC50 of inhibition on SGLT1 (method of Meng et al., J. Med. Chem. 2008). The following applies: compared with methoxyl and methyl analogues of Table 3. Type of series: cell-based.
Sequence of hSGLT1 (P13866 whole entry): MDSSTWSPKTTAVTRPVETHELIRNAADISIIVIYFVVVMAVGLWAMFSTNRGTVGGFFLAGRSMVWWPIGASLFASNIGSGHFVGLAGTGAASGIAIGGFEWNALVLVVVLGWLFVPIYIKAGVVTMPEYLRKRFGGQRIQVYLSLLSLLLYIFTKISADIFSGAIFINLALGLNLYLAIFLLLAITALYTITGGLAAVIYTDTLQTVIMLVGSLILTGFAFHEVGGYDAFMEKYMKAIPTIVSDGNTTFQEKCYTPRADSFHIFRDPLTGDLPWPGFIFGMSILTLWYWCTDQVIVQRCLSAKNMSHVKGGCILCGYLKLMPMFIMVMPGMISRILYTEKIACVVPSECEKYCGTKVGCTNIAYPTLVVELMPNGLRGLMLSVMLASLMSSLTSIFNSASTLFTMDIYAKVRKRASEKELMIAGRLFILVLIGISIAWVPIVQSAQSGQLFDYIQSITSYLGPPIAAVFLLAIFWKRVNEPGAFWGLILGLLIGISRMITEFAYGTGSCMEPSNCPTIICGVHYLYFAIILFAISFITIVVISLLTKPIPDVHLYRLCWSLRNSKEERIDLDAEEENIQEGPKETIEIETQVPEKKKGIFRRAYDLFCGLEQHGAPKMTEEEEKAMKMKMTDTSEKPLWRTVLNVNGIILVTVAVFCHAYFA
The nature of series [4]: Influencing factors test: light stability. Type of series: physicochemical. To be noted: listed as I-D1-6 raw materials.
From the text: as §1

Where [5] appears, read: compared with methoxyl and methyl analogues of Table 3.

Sequence of hSGLT2 (P31639 whole entry): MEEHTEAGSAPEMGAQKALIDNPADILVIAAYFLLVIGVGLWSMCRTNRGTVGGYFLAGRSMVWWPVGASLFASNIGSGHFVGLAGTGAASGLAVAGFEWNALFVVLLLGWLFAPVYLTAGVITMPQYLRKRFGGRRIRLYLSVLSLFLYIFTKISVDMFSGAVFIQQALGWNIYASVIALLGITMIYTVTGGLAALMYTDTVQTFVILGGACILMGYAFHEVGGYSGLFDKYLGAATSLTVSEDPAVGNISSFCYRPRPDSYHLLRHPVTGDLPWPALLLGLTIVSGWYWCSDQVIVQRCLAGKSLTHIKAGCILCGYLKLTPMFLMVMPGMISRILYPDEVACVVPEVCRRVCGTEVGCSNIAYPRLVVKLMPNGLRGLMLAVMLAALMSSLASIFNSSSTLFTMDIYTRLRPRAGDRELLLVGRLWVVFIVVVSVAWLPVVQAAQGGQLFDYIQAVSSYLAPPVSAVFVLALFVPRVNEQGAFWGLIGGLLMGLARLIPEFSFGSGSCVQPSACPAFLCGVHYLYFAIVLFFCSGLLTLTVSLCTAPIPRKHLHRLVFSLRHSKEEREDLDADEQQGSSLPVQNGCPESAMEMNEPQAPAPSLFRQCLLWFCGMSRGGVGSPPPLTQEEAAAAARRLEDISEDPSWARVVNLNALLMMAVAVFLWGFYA

On to `CCOc1ccc(Cc2cc(C3OC(C)C(O)C(O)C3O)ccc2Cl)cc1` [I-D1-6, (1S)-1-[4-chloro-3-(4-ethoxybenzyl)phenyl]-1,6-dideoxy-D-glucose], for which the “inhibition to SGLT2 (comparison in words)” value against hSGLT2 (setting [5]) was “much stronger inhibition to SGLT2”. Moreover, the “selectivity on SGLT1/SGLT2 (comparison in words)” value on hSGLT2 (setting [5]) was “much better selectivity on SGLT1/SGLT2”. For the same compound, the “urine glucose excretion effect (comparison in words)” value in series [1] is reported as “stronger urine glucose excretion effect”. Further, the Appearance result in series [2] (higher humidity (30% relative humidity at 30° C.), day 0) is listed as “white, foam-like”; in series [2] (higher humidity, day 7) it was “white foam-like”; in series [2] (higher humidity, day 14), “white foam-like”; in series [3] (45° C., day 7) it was “white, foam-like”; in series [3] (45° C., day 14), “white, foam-like”; in series [3] (higher temperature (45° C.), day 0), “white, foam-like”. Moreover, the Appearance result in series [4] (light (natural daylight, about 80000 Lx), day 0) is reported as “a white, foam-like”; in series [4] (light, day 7), “a white, foam-like”; in series [4] (light, day 14), “a white, foam-like”. Also, the Number of impurity in series [3] (45° C., day 0, HPLC) amounted to 7; in series [3] (45° C., day 7, HPLC) it was 8; in series [3] (45° C., day 14, HPLC), 9. Also, the “Total amount of impurity (%)” value in series [3] (45° C., day 0, HPLC) was 0.89%; in series [3] (45° C., day 7, HPLC), 0.97%. For the same compound, at hSGLT1, the “inhibition to SGLT1 (comparison in words)” value was “much less inhibition to SGLT1”.

As to `COc1ccc(Cc2cc(C3OC(C)C(O)C(O)C3O)ccc2Cl)cc1` (stereo not drawn) [drawing 311], the “Selectivity IC50 (hSGLT1)/IC50 (hSGLT2)” value at hSGLT2 is recorded as 26.

For `CCOc1ccc(Cc2cc(C3OC(C)C(O)C(O)C3O)ccc2C)cc1` (stereo not drawn) [drawing 313], the “Selectivity IC50 (hSGLT1)/IC50 (hSGLT2)” value at hSGLT2 was determined as 24.

`CCOc1ccc(Cc2cc(C3CCC(O)C(CO)S3)c(OC)cc2C)cc1` (stereo not drawn) [drawing 266]: the Urine glucose excretion in series [1] is 730 mg/200 g body weight of the rat.

`COc1ccc(Oc2cc(C3OC(C)C(O)C(O)C3O)ccc2Cl)cc1` (stereo not drawn): the Urine glucose excretion in series [1] is 457 mg/200 g body weight of the rat.

As to `C=C1OC(c2ccc(Cl)c(Cc3ccc(OC)cc3)c2)C(O)C(O)C1O` (stereo not drawn), in series [1], the Urine glucose excretion is 410 mg/200 g body weight of the rat.

For `CCc1ccc(Cc2cc(C3OC(CO)C(O)CC3O)ccc2C)cc1` (stereo not drawn), the Urine glucose excretion in series [1] is 230 mg/200 g body weight of the rat.

Regarding `CCOc1ccc(Cc2cc(C3OC(CO)CC(O)C3O)ccc2Cl)cc1` (stereo not drawn) [drawing 229], the Urine glucose excretion in series [1] is listed as 880 mg/200 g body weight of the rat.

On to `CCOc1ccc(Cc2cc([C@@H]3O[C@H](CO)C[C@H](O)[C@H]3O)ccc2Cl)cc1` [I-D1-4, (1S)-1-[4-chloro-3-(4-ethoxybenzyl)phenyl]-1,4-dideoxy-D-glucose], for which, in series [1], the “urine glucose excretion effect (comparison in words)” value is “stronger urine glucose excretion effect”.

In the case of `CCc1ccc(Cc2c(Cl)ccc3c2COC32OC(CO)C(O)C(O)C2O)cc1` (stereo not drawn) [drawing 258], the Urine glucose excretion in series [1] is recorded as 755 mg/200 g body weight of the rat.
